# Laboratory results: US20230091042A1, “SMARCA2-VHL DEGRADERS” (AMGEN INC., priority 2020, published 2023)
# What was measured:
# [1] = target: T1, SMARCA2 (Homo sapiens, UniProt P51531); assay: SMARCA2 MSD assay in A375 cells (SMARCA2 degradation, 2 h); assay type: cell-based; settings: 2 h compound treatment, N/C = no curve; for DC50: read-out: A375 SMARCA2 MSD IC50 IP
# T1 construct: endogenous in cells; host or cells: A375 cells (ATCC CRL-1619)
# Procedure: (§1) SMARCA2 and SMARCA4 MSD Assays in A375 Cells:
# A375 cells (ATCC® CRL-1619™) were cultured in RPMI 1640 Medium (ThermoFisher Scientific 11875093) containing 10% fetal bovine serum (ThermoFisher Scientific 16000044) and 1× penicillin-streptomycin-glutamine (ThermoFisher Scientific 10378016). Sixteen hours prior to compound treatment, cells were seeded in 96-well cell culture plates (Corning 3904) at a density of 2.5×10^5 cells/well (90 uL/well) and incubated at 37° C., 5% CO2. A 1:3 compound dose-response titration was diluted in growth media (1:20), added to appropriate wells of a cell culture plate (1:10) and then assay plates were incubated at 37° C., 5% CO2. After 2 h of compound treatment, cells were lysed in MSD lysis buffer (MSD R60TX-2) containing protease (Roche 04693116001) and phosphatase (Roche 04906837001) inhibitors.
# . Plates were washed with 300 μL per well MSD wash buffer (MSD R61TX-1) between each step. Following the last incubation, plates were washed with MSD wash buffer then 150 uL of MSD read buffer (MSD R92TC-2) was added to each well. Plates were immediately read on a MSD plate reader (MSD Sector Imager 6000) and data was analyzed using a 4-parameter logistic model to calculate IC50 values.
# [2] = target: T2, SMARCA4 (Homo sapiens, UniProt P51532); assay: SMARCA4 MSD assay in A375 cells (SMARCA4 degradation, 2 h); assay type: cell-based; settings: 2 h compound treatment, N/C = no curve
# T2 construct: After 2 h of compound treatment, cells were lysed in MSD lysis buffer; endogenous in cells; host or cells: A375 cells (ATCC CRL-1619)
# T2 sequence (P51532 whole entry): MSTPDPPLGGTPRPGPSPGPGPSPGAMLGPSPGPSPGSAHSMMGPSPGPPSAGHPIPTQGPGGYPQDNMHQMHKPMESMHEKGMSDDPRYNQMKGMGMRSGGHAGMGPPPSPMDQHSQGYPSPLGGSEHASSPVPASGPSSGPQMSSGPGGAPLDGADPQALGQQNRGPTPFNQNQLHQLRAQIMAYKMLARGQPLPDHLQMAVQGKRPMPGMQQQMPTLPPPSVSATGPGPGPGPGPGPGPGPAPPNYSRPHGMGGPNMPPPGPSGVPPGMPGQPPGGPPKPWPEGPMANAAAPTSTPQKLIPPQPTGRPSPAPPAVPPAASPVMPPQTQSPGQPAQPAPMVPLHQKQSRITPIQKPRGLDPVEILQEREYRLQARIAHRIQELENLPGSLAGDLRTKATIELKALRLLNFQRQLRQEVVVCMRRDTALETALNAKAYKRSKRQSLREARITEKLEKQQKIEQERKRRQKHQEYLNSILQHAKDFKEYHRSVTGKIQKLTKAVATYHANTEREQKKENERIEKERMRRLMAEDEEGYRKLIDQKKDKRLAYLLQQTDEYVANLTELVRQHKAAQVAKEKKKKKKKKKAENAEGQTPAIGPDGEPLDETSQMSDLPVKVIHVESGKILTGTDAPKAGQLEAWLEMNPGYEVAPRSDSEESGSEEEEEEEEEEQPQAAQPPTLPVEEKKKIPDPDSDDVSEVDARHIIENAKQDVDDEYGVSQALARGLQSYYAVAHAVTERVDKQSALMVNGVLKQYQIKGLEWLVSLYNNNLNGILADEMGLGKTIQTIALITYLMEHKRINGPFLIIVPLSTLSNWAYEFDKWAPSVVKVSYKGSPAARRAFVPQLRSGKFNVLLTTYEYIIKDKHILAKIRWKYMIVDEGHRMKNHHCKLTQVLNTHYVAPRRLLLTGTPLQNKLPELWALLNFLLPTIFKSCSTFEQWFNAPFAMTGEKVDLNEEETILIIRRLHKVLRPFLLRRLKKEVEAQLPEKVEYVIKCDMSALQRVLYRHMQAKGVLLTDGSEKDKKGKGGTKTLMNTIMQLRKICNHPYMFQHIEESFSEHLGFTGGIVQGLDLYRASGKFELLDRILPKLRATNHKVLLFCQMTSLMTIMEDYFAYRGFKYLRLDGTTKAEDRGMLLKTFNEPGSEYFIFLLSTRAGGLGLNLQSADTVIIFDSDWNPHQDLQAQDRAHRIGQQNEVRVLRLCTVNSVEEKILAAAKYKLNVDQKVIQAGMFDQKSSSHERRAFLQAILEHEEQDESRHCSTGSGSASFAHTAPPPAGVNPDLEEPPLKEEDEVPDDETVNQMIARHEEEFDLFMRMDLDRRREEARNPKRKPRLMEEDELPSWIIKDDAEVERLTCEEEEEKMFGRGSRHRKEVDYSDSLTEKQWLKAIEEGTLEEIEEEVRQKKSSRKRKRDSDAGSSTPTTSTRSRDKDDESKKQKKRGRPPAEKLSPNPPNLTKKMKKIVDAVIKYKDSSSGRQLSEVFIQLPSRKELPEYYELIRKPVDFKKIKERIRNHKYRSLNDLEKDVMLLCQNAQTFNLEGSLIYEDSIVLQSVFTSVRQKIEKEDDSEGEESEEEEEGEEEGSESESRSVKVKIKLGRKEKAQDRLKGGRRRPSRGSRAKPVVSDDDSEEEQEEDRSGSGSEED
# Procedure: as §1
# A 1:3 compound dose-response titration was diluted in growth media (1:20), added to appropriate wells of a cell culture plate (1:10) and then assay plates were incubated at 37° C., 5% CO2.
# Plates were washed with 300 μL per well MSD wash buffer (MSD R61TX-1) between each step. Following the last incubation, plates were washed with MSD wash buffer then 150 uL of MSD read buffer (MSD R92TC-2) was added to each well. Plates were immediately read on a MSD plate reader (MSD Sector Imager 6000) and data was analyzed using a 4-parameter logistic model to calculate IC50 values.
# T1 sequence (P51531 whole entry): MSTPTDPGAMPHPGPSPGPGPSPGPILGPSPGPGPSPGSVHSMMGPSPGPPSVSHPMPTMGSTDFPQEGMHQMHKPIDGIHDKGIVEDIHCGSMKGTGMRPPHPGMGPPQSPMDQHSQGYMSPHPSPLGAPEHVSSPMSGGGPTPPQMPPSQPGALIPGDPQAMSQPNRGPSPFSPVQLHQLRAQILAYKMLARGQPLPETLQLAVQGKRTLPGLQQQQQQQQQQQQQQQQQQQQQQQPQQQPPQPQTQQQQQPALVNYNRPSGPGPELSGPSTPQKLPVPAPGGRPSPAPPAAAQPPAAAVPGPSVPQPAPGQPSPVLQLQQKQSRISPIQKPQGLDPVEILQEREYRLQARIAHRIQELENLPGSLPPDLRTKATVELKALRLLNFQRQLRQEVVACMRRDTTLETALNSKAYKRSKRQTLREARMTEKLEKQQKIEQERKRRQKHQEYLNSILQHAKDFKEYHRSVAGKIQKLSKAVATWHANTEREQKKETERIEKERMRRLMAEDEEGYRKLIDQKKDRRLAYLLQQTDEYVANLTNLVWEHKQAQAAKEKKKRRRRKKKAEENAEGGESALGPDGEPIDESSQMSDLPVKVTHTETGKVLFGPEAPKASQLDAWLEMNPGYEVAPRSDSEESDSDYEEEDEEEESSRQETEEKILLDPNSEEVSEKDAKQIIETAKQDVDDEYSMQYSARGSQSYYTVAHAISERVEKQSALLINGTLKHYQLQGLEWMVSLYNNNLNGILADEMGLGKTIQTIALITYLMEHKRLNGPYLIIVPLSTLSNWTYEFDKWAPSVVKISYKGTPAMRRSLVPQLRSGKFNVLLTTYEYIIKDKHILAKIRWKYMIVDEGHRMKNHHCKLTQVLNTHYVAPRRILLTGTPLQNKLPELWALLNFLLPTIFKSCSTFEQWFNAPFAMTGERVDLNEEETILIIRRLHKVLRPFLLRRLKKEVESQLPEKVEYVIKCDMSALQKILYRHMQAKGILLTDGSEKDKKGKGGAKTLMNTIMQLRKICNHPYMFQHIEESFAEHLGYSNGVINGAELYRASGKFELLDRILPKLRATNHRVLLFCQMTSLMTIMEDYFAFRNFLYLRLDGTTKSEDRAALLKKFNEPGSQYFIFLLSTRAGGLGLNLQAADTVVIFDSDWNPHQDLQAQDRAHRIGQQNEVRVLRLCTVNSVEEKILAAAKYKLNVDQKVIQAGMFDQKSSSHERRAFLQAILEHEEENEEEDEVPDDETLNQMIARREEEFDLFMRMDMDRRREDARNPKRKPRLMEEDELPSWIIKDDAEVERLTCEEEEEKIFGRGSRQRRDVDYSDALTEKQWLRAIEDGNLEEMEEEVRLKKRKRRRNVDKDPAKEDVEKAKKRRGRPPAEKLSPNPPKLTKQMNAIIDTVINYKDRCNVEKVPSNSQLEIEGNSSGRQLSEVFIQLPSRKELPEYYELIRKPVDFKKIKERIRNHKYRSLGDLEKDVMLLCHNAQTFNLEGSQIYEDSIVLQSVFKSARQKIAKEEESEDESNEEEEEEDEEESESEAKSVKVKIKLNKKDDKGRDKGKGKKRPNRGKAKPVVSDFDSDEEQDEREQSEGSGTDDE
SMILES,DC50 [1],A375 SMARCA4 MSD IC50 IP [2],further results
"Cc1ncsc1-c1ccc([C@H](C)NC(=O)[C@@H]2C[C@@H](O)CN2C(=O)[C@@H](NC(=O)CN2CCN(c3cc(-c4cccc(F)c4O)nnc3N)CC2)C(C)(C)C)cc1 [compound 2, (2S,4R)-1-((S)-2-(2-(4-(3-Amino-6-(3-fluoro-2-hydroxyphenyl)pyridazin-4-yl)piperazin-1-yl)acetamido)-3,3-dimethylbutanoyl)-4-hydroxy-N—((S)-1-(4-(4-methylthiazol-5-yl)phenyl)ethyl)pyrrolidine-2-carboxamide, reference compound]",420 nM,–,–
"Cc1ncsc1-c1ccc([C@H](C)NC(=O)[C@@H]2C[C@@H](O)CN2C(=O)[C@@H](NC(=O)c2cccc(N3CCN(c4nc(-c5ccccc5O)nnc4N)CC3)n2)C(C)(C)C)cc1 [Example 10, 6-(4-(6-Amino-3-(2-hydroxyphenyl)-1,2,4-triazin-5-yl)piperazin-1-yl)-N—((S)-1-((2S,4R)-4-hydroxy-2-(((S)-1-(4-(4-methylthiazol-5-yl)phenyl)ethyl)carbamoyl)pyrrolidin-1-yl)-3,3-dimethyl-1-oxobutan-2-yl)picolinamide]",250 nM,–,–
"Cc1ncsc1-c1ccc([C@H](C)NC(=O)[C@@H]2C[C@@H](O)CN2C(=O)[C@@H](NC(=O)CN2CCN(c3cc(-c4ccccc4O)nnc3N)CC2)C(C)(C)C)cc1 [compound 1, (2S,4R)-1-((S)-2-(2-(4-(3-Amino-6-(2-hydroxyphenyl)pyridazin-4-yl)piperazin-1-yl)acetamido)-3,3-dimethylbutanoyl)-4-hydroxy-N—((S)-1-(4-(4-methylthiazol-5-yl)phenyl)ethyl)pyrrolidine-2-carboxamide, reference compound]",250 nM,–,DC50 ([2]; read-out: A375 SMARCA4 MSD IC50 IP): 840 nM
"Cc1ncsc1-c1ccc([C@H](C)NC(=O)[C@@H]2C[C@@H](O)CN2C(=O)[C@@H](NC(=O)CCc2ccnc(N3CCN(c4cc(-c5ccccc5O)nnc4N)CC3)c2)C(C)(C)C)cc1 [Example 9, (2S,4R)-1-((S)-2-(3-(2-(4-(3-Amino-6-(2-hydroxyphenyl)pyridazin-4-yl)piperazin-1-yl)pyridin-4-yl)propanamido)-3,3-dimethylbutanoyl)-4-hydroxy-N—((S)-1-(4-(4-methylthiazol-5-yl)phenyl)ethyl)pyrrolidine-2-carboxamide]",–,N/C,A375 SMARCA2 MSD IC50 IP [1]: N/C
"Cc1ncsc1-c1ccc([C@H](C)NC(=O)[C@@H]2C[C@@H](O)CN2C(=O)[C@@H](NC(=O)c2ccc(N3CCN(c4cc(-c5ccccc5O)nnc4N)CC3)nc2)C(C)(C)C)cc1 [Example 7, 6-(4-(3-Amino-6-(2-hydroxyphenyl)pyridazin-4-yl)piperazin-1-yl)-N—((S)-1-((2S,4R)-4-hydroxy-2-(((S)-1-(4-(4-methylthiazol-5-yl)phenyl)ethyl)carbamoyl)pyrrolidin-1-yl)-3,3-dimethyl-1-oxobutan-2-yl)nicotinamide]",–,N/C,A375 SMARCA2 MSD IC50 IP [1]: N/C
"Cc1ncsc1-c1ccc([C@H](C)NC(=O)[C@@H]2C[C@@H](O)CN2C(=O)[C@@H](NC(=O)c2ccc(N3CCN(c4cc(-c5ccccc5O)nnc4N)CC3)s2)C(C)(C)C)cc1 [Example 6, (2S,4R)-1-((S)-2-(5-(4-(3-Amino-6-(2-hydroxyphenyl)pyridazin-4-yl)piperazin-1-yl)thiophene-2-carboxamido)-3,3-dimethylbutanoyl)-4-hydroxy-N—((S)-1-(4-(4-methylthiazol-5-yl)phenyl)ethyl)pyrrolidine-2-carboxamide]",190 nM,–,–
"Cc1ncsc1-c1ccc([C@H](C)NC(=O)[C@@H]2C[C@@H](O)CN2C(=O)[C@@H](NC(=O)c2ccnc(N3CCN(c4cnnc(-c5ccccc5O)c4)CC3)c2)C(C)(C)C)cc1 [Example 11, N—((S)-1-((2S,4R)-4-Hydroxy-2-(((S)-1-(4-(4-methylthiazol-5-yl)phenyl)ethyl)carbamoyl)pyrrolidin-1-yl)-3,3-dimethyl-1-oxobutan-2-yl)-2-(4-(6-(2-hydroxyphenyl)pyridazin-4-yl)piperazin-1-yl)isonicotinamide]",350 nM,N/C,–
"Cc1ncsc1-c1ccc([C@H](C)NC(=O)[C@@H]2C[C@@H](O)CN2C(=O)[C@@H](NC(=O)Cc2ccnc(N3CCN(c4cc(-c5ccccc5O)nnc4N)CC3)c2)C(C)(C)C)cc1 [Example 8, (2S,4R)-1-((S)-2-(2-(2-(4-(3-Amino-6-(2-hydroxyphenyl)pyridazin-4-yl)piperazin-1-yl)pyridin-4-yl)acetamido)-3,3-dimethylbutanoyl)-4-hydroxy-N—((S)-1-(4-(4-methylthiazol-5-yl)phenyl)ethyl)pyrrolidine-2-carboxamide]",–,N/C,A375 SMARCA2 MSD IC50 IP [1]: N/C

# Further compounds by falling DC50 [1], results first:
DC50 [1],A375 SMARCA4 MSD IC50 IP [2],SMILES,further results
150 nM,–,"Cc1ncsc1-c1ccc([C@H](C)NC(=O)[C@@H]2C[C@@H](O)CN2C(=O)[C@@H](NC(=O)c2csc(N3CCN(c4cc(-c5ccccc5O)nnc4N)CC3)n2)C(C)(C)C)cc1 [Example 5, 2-(4-(3-Amino-6-(2-hydroxyphenyl)pyridazin-4-yl)piperazin-1-yl)-N—((S)-1-((2S,4R)-4-hydroxy-2-(((S)-1-(4-(4-methylthiazol-5-yl)phenyl)ethyl)carbamoyl)pyrrolidin-1-yl)-3,3-dimethyl-1-oxobutan-2-yl)thiazole-4-carboxamide]",–
120 nM,–,"Cc1ncsc1-c1ccc([C@H](C)NC(=O)[C@@H]2C[C@@H](O)CN2C(=O)[C@@H](NC(=O)c2cccc(N3CCN(c4cc(-c5ccccc5O)nnc4N)CC3)n2)C(C)(C)C)cc1 [Example 2, 6-(4-(3-Amino-6-(2-hydroxyphenyl)pyridazin-4-yl)piperazin-1-yl)-N—((S)-1-((2S,4R)-4-hydroxy-2-(((S)-1-(4-(4-methylthiazol-5-yl)phenyl)ethyl)carbamoyl)pyrrolidin-1-yl)-3,3-dimethyl-1-oxobutan-2-yl)picolinamide]",–
110 nM,–,"Cc1ncsc1-c1ccc(CNC(=O)[C@@H]2C[C@@H](O)CN2C(=O)[C@@H](NC(=O)c2ccnc(N3CCN(c4cc(-c5ccccc5O)nnc4N)CC3)c2)C(C)(C)C)cc1 [Example 1, 2-(4-(3-Amino-6-(2-hydroxyphenyl)pyridazin-4-yl)piperazin-1-yl)-N—((S)-1-((2S,4R)-4-hydroxy-2-((4-(4-methylthiazol-5-yl)benzyl)carbamoyl)pyrrolidin-1-yl)-3,3-dimethyl-1-oxobutan-2-yl)isonicotinamide]",–
43 nM,–,"Cc1ncsc1-c1ccc([C@H](C)NC(=O)[C@@H]2C[C@@H](O)CN2C(=O)[C@@H](NC(=O)c2ccnc(N3CCN(c4cc(-c5ccccc5O)nnc4N)CC3)c2)C(C)(C)C)cc1 [Example 3, 2-(4-(3-Amino-6-(2-hydroxyphenyl)pyridazin-4-yl)piperazin-1-yl)-N—((S)-1-((2S,4R)-4-hydroxy-2-(((S)-1-(4-(4-methylthiazol-5-yl)phenyl)ethyl)carbamoyl)pyrrolidin-1-yl)-3,3-dimethyl-1-oxobutan-2-yl)isonicotinamide]",–
22 nM,–,"Cc1ncsc1-c1ccc([C@H](C)NC(=O)[C@@H]2C[C@@H](O)CN2C(=O)[C@@H](NC(=O)c2cccc(N3CCN(c4cc(-c5ccccc5O)nnc4N)CC3)c2)C(C)(C)C)cc1 [Example 4, (2S,4R)-1-((S)-2-(3-(4-(3-Amino-6-(2-hydroxyphenyl)pyridazin-4-yl)piperazin-1-yl)benzamido)-3,3-dimethylbutanoyl)-4-hydroxy-N—((S)-1-(4-(4-methylthiazol-5-yl)phenyl)ethyl)pyrrolidine-2-carboxamide]",–
